Like-named read-outs stand apart in the source and are kept apart here.
Assays:
peptic ulcer = settings: Ter. Arkh. 57, 52-55, 1985; JP Laid-Open 225317/88; cited from earlier work
in vivo [1] = settings: mouse, mice
From the text: The intravenous or intraperitoneal LD50 values of the compounds of this invention and the reference compound (propentofylline) for mice are shown in Table 4.

[2] = test system: stress-induced gastric ulcer; assay: Protective effect on gastric ulcer induced by restraint plus water-immersion stress in rats; type: in vivo, rat (male Sprague-Dawley); settings: for Ulcer index / inhibition in vivo at 10 mg/kg: 10 mg/kg p.o.; for Ulcer index: mean ± S.E.; for inhibition in vivo at 10 mg/kg: Rattus norvegicus, po
Method: 1.1. Protective Effect of Gastric Ulcer Induced by Restraint Plus Water-immersion Stress in Rats
Male Sprague-Dawley rats weighing 250-300 g were used in groups of 5-35. The animals were given the compounds by the oral route after fasting overnight. Immediately, under light ether anesthesia they were placed in a restraint box and immersed in water at 23° C. for 6 or 7 hours. Then the animals were sacrificed, and their stomachs were isolated, inflated with 8 ml of 1% formalin for 10 minutes, opened along the greater curvature, and examined for the presence of gastric erosions. The longest axis of each erosion induced on the glandular section of the stomach was measured, and the sum of the lengths was defined as an ulcer index.

[3] = test system: ethanol-induced gastric ulcer; assay: Protective effect on ethanol-induced gastric ulcer in rats; type: in vivo, rat (male Sprague-Dawley); settings: 10 mg/kg p.o.; for Ulcer index: mean ± S.E.; for inhibition in vivo at 10 mg/kg: Rattus norvegicus, po, 1 h
Method: 1.2. Protective Effect on Ethanol-induced Gastric Ulcer in Rats
Male Sprague-Dawley rats weighing 300-400 g were used in groups of 4-36. After fasting overnight, the animals were given orally the compounds. Thirty minutes later they received absolute ethanol (1 ml/body) orally and were sacrificed after 60 minutes. The stomach was removed and examined for erosions. The ulcer index was obtained in the same way as under 1.1.

in vivo [4] = settings: mouse, mice, oral, read-out: oral LC50
[5] = iv, i.v., read-out: LD50 (intravenous)
[6] = control distilled water (26.0 ± 2.2 mm)
[7] = control distilled water (93.1 ± 8.9 mm)
[8] = control 10% EtOH (32.9 ± 3.3 mm)
[9] = control 10% EtOH (78.9 ± 8.5 mm)
[10] = ip, i.p., read-out: LD50 (intraperitoneal)

| SMILES | LD50 (in vivo [1]; [5]) | Ulcer index [2, 6] | inhibition in vivo at 10 mg/kg ([2]; vs. control distilled water) | Ulcer index [3, 7] | inhibition in vivo at 10 mg/kg ([3]; vs. control distilled water) | other results |
| --- | --- | --- | --- | --- | --- | --- |
| CC(=O)CCCCn1c(=O)c2c(ncn2C)n(C)c1=O [pentoxifylline] |  |  |  |  |  | antiulcer activity (in words, from literature) (peptic ulcer): antiulcer effects |
| CCn1c(=O)n(CCCCC(C)(C)O)c(=O)c2c1ncn2C [Compound 2] | > 200 mg/kg | 6.5 ± 1.6 mm | 75% | 23.5 ± 7.0 mm | 74.8% | times more effective than propentofylline in improving stress-induced gastric ulcers ([2]; stress-induced gastric ulcers): 2.5 times |
| CCCn1cnc2c1c(=O)n(CCCCCC(C)(C)O)c(=O)n2CC [Compound 14, 3-Ethyl-1-(6-hydroxy-6-methylheptyl)-7-propylxanthine] | > 200 mg/kg |  |  |  |  | Ulcer index [2, 8]: 4.8 ± 1.7 mm; inhibition in vivo at 10 mg/kg ([2]; vs. control 10% EtOH): 85.4%; Ulcer index [3, 9]: 3.7 ± 1.1 mm; inhibition in vivo at 10 mg/kg ([3]; listed under control 10% EtOH): 95.3% |
| CCCn1cnc2c1c(=O)n(CCCC(C)(O)CC)c(=O)n2C (stereo not drawn) [Compound 12] |  |  |  | 26.1 ± 10.8 mm | 72% | LD50 (in vivo [1]; [10]): 300 to 600 mg/kg |
| CCOCn1cnc2c1c(=O)n(CCCCC(C)(C)O)c(=O)n2CC [Compound 18] | > 200 mg/kg | 6.9 ± 2.1 mm | 73.5% | 16.8 ± 7.1 mm | 82% |  |
| C=CCn1cnc2c1c(=O)n(CCCCC(C)(C)O)c(=O)n2CC [Compound 19, 7-Allyl-3-ethyl-1-(5-hydroxy-5-methylhexyl)-xanthine] | > 100 mg/kg | 10.2 ± 2.4 mm | 60.8% | 5.2 ± 2.0 mm | 94.4% |  |
| CCn1cnc2c1c(=O)n(CCCCC(C)(C)O)c(=O)n2CC [Compound 16, 3,7-Diethyl-1-(5-hydroxy-5-methylhexyl)-xanthine] | > 200 mg/kg | 6.8 ± 1.6 mm | 73.8% | 17.0 ± 7.1 mm | 81.7% |  |
| CCn1c(=O)n(CCCCCC(C)(C)O)c(=O)c2c1ncn2C(C)C [Compound 15, 3-Ethyl-1-(6-hydroxy-6-methylheptyl)-7-isopropylxanthine] |  |  |  |  |  | LD50 (in vivo [1]; [10]): > 600 mg/kg; Ulcer index [2, 8]: 6.6 ± 1.6 mm; inhibition in vivo at 10 mg/kg ([2]; vs. control 10% EtOH): 79.9%; Ulcer index [3, 9]: 4.2 ± 2.2 mm; inhibition in vivo at 10 mg/kg ([3]; listed under control 10% EtOH): 94.7% |
| CCCn1cnc2c1c(=O)n(CCCC(C)(C)O)c(=O)n2CC [Compound 3] | > 200 mg/kg | 12.8 ± 2.5 mm | 50.8% |  |  |  |
| Cn1c(=O)n(CCCCC(C)(C)O)c(=O)c2[nH]cnc21 [Compound 5] | > 200 mg/kg | 7.5 ± 2.0 mm | 71.2% |  |  | LD50 (in vivo [4]): > 2500 mg/kg |
| CCn1cnc2c1c(=O)n(CCCCCC(C)(C)O)c(=O)n2CC [Compound 13, 3,7-diethyl-1-(6-hydroxy-6-methylheptyl)-xanthine] | > 200 mg/kg | 5.0 ± 1.0 mm | 80.8% | 15.7 ± 9.4 mm | 83.1% |  |
| C=CCCn1c(=O)c2c(ncn2CCCCC(C)(C)O)n(CC)c1=O [Compound 21, 1-(3-Butenyl)-3-ethyl-7-(5-hydroxy-5-methylhexyl)-3-xanthine] |  |  |  | 19.2 ± 9.2 mm | 79.4% |  |
| CCCn1cnc2c1c(=O)n(CCCCC(C)(C)O)c(=O)n2CC [Compound 1] | 100 to 200 mg/kg | 8.7 ± 1.6 mm | 66.5% | 12.0 ± 6.9 mm | 87.1% |  |
| CCOCCn1c(=O)c2c(ncn2CCCCC(C)(C)O)n(C)c1=O [Compound 10] | > 200 mg/kg | 17.8 ± 3.3 mm | 31.5% |  |  |  |
| CCCn1cnc2c1c(=O)n(CCCCCC(C)(C)O)c(=O)n2C [Compound 11] |  | 16.0 ± 3.8 mm | 38.5% |  |  | LD50 (in vivo [1]; [10]): 150 to 300 mg/kg |
| CCn1c(=O)n(CCCCCC(C)(C)O)c(=O)c2c1ncn2C [Compound 4] | 100 to 200 mg/kg | 10.6 ± 1.8 mm | 59.2% | 21.2 ± 8.4 mm | 77.2% |  |
| C=CCn1cnc2c1c(=O)n(CCCCC(C)(C)O)c(=O)n2C [Compound 20, 7-Allyl-1-(5-hydroxy-5-methylhexyl)-3-methylxanthine] | > 100 mg/kg | 10.6 ± 3.0 mm | 59.2% |  |  |  |
| Cn1c(=O)n(CCCCC(C)(C)O)c(=O)c2c1ncn2CCC(O)CO (stereo not drawn) [Compound 9] | > 100 mg/kg | 17.8 ± 3.3 mm | 31.5% |  |  |  |
| CCCn1cnc2c1c(=O)n(CCCCC(C)=O)c(=O)n2C [Compound 22, 1-(5'-oxohexyl)-3-methyl-7-propyl xanthine, reference compound] |  | 18.4 ± 3.0 mm | 29.2% |  |  | antiulcer activity (in words, from literature) (peptic ulcer): superior to that of pentoxifylline; Ulcer index [3, 9]: 34.7 ± 8.4 mm; inhibition in vivo at 10 mg/kg ([3]; listed under control 10% EtOH): 62.7% |
| CCCn1c(=O)c2c(ncn2CCCCC(C)(C)O)n(C)c1=O [Compound 8] | 100 to 200 mg/kg | 12.1 ± 2.9 mm | 53.5% |  |  |  |
| C=CCCn1cnc2c1c(=O)n(CCCCC(C)(C)O)c(=O)n2C [Compound 6] |  |  |  |  |  | LD50 (in vivo [1]; [10]): 150 to 300 mg/kg; Ulcer index [2, 8]: 17.4 ± 4.5 mm; inhibition in vivo at 10 mg/kg ([2]; vs. control 10% EtOH): 47.1% |
| CCCCn1cnc2c1c(=O)n(CCCCC(C)(C)O)c(=O)n2CC [Compound 17, 7-Butyl-3-ethyl-1-(5-hydroxy-5-methylhexyl)-xanthine] |  |  |  |  |  | LD50 (in vivo [1]; [10]): > 600 mg/kg; Ulcer index [2, 8]: 12.5 ± 3.3 mm; inhibition in vivo at 10 mg/kg ([2]; vs. control 10% EtOH): 62%; Ulcer index [3, 9]: 13.0 ± 8.3 mm; inhibition in vivo at 10 mg/kg ([3]; listed under control 10% EtOH): 83.5% |
| Cn1cnc2c1c(=O)n(CCCCC(C)(C)O)c(=O)n2C [Compound 7] | > 200 mg/kg | 15.8 ± 4.4 mm | 39.2% |  |  |  |

Source: patent US5109003A, “Method for the treatment of peptic ulcer disease” (Hoechst Japan Limited, priority 1989, dated 1992)
